# Results: patent publication US12629383B2, “Cannabinoid compositions with high solubility and bioavailability” (priority 2020, dated 2026)
# Like-named read-outs stand apart in the source and are kept apart here.
# Assays:
# [1] = Animal study (pharmacokinetics), gavage, CBD blood concentration by HPLC; type: in vivo; conditions: rat
# Method: According to the results of the dissolution study, compositions were prepared by adhering to the ratios of the present invention.
# 6 rats weighing 250+/−20 grams were used per each study group and a total of 5 groups were used. The compositions were administered by gavage at the human dose equivalent of 40 mg CBD per composition.
# The results were analyzed by blood draws at each of the time points over an 8 hour period. An HPLC system was used to determine the blood concentration of CBD at the specified time points. The blood concentrations were given as (μg/mL)
# The average CBD blood concentration of the groups were used to determine the pharmacokinetic parameters of Cmax, AUC and Tmax.
# [2] = Dissolution study, USP type II apparatus, HPLC quantification of CBD released; type: physicochemical; conditions: 900 ml pH 6.8 phosphate buffer
# Method: Dissolution study was performed in 900 ml volume with a USP type II apparatus at pH 6.8 phosphate buffer. HPLC analysis (as per below) was used to quantify the amount of CBD released at each time point.
# • Method: High Performance Liquid Chromatography (HPLC); Shimadzu LC-2040 3D Nexera-i • Wave lenght: 220 nm • Column 100 mm*4.6 mm; 5 μm C18 (InertSustain) • Column Temperature: 25° C. • AutoSampler Temperature: 5° C. • Injection Volume: 5 μL • Flow rate: 1.0 mL/min • Mobile Phase: Methanol:Water (85:[…]) • Diluent: Methanol • Run Time: Cannabidiol=3.7 min
compound,measurement,setting,value
"C=C(C)[C@@H]1CCC(C)=C[C@H]1c1c(O)cc(CCCCC)cc1O [CBD API, Cannabidiol]",concentration at 0 h,"[1]; blood, oral, 40 mg CBD (human dose equivalent), hour 0, rats, human dose equivalent of 40 mg CBD, group average",0 ng/mL
same,concentration at […],"[1]; blood, oral, 40 mg CBD (human dose equivalent), hour 0.083, rats, human dose equivalent of 40 mg CBD, group average",8 ng/mL
same,concentration at 0.25 h,"[1]; blood, oral, 40 mg CBD (human dose equivalent), hour 0.25, rats, human dose equivalent of 40 mg CBD, group average",11 ng/mL
same,concentration at 0.5 h,"[1]; blood, oral, 40 mg CBD (human dose equivalent), hour 0.5, rats, human dose equivalent of 40 mg CBD, group average",15 ng/mL
same,concentration at 1 h,"[1]; blood, oral, 40 mg CBD (human dose equivalent), hour 1, rats, human dose equivalent of 40 mg CBD, group average",13 ng/mL
same,concentration at 2 h,"[1]; blood, oral, 40 mg CBD (human dose equivalent), hour 2, rats, human dose equivalent of 40 mg CBD, group average",11 ng/mL
same,concentration at 4 h,"[1]; blood, oral, 40 mg CBD (human dose equivalent), hour 4, rats, human dose equivalent of 40 mg CBD, group average",8 ng/mL
same,concentration at 8 h,"[1]; blood, oral, 40 mg CBD (human dose equivalent), hour 8, rats, human dose equivalent of 40 mg CBD, group average",6 ng/mL
same,Tmax,"[1]; blood, po, 40 mg CBD (human dose equivalent), rats, read-out: Tmax after administration (converted)",30 min
same,AUC(0-t),"[1]; blood, po, rats, human dose equivalent of 40 mg CBD",71 ng·h/mL
same,Tmax,"[1]; blood, po, rats, human dose equivalent of 40 mg CBD, read-out: Tmax",30 min
same,Cmax,"[1]; po, rats, human dose equivalent of 40 mg CBD, from average blood concentration",15 ng/mL
same,% CBD API Released,[2]; 5 min,"1,89%"
same,% CBD API Released,[2]; 10 min,"1,89%"
same,% CBD API Released,[2]; 15 min,"2,05%"
same,% CBD API Released,[2]; 30 min,2%
same,% CBD API Released,[2]; 60 min,"2,01%"
same,% CBD API Released,[2]; 120 min,"1,97%"
same,% CBD API Released,[2]; 180 min,"2,2%"
same,% CBD API Released,[2]; 240 min,"2,32%"
